The test system of test [1] is H9P46-P48 embryonic stem cells. The test is described as follows: Definitive endoderm on […]: effect of GSK-3B inhibitor IX (FACS CXCR4, PCR). Type of test: cell-based, human. The note with it: 20 ng/ml Wnt-3a or 100-1000 nM GSK-3B inhibitor, day 5. As for the experimental part:
In order to confirm that the effect of Wnt-3a was through the Wnt pathway, a GSK-3 inhibitor was used to activate the downstream targets of Wnt, such as beta catenin. […] FIG. 29, panel a depicts the expression of CXCR4 by FACS at day 5 in the absence of Wnt-3a or GSK-3B inhibitor, b) +20 ng/ml Wnt-3a, c) +1000 nM GSK-3B inhibitor IX, d) +500 nM GSK-3B inhibitor IX, e) +100 nM GSK-3B inhibitor IX, f) +10 nM GSK-3B inhibitor IX, g) +100 nM GSK-3B inhibitor IX for days 1-2, and h) +10 nM GSK-3B inhibitor IX for days 1-2.

The test system of test [2] is human embryonic stem cell line H9. The test can be described thus: PCR of endoderm, extraembryonic, mesoderm and ectoderm markers after activin A treatment on MEFs. Type of test: cell-based. An excerpt: (§1) The level of expression of definitive endoderm markers was examined by PCR (FIG. 1), FACS (results summarized in Table II), and immunohistochemistry (FIG. 2).
Cells were harvested at the time points indicated in FIG. 3 and assayed by PCR for the expression of genes shown (FIGS. 3, 4 and 5).
RNA extraction, purification, and CDNA synthesis: RNA samples were purified by binding to a silica-gel membrane (Rneasy Mini Kit, Qiagen, CA) in the presence of an ethanol-containing, high-salt buffer followed by washing to remove contaminants. The RNA was further purified using a TURBO DNA-free kit (Ambion, INC), and high-quality RNA was then eluted in water. Yield and purity were assessed by A260 and A280 readings on a spectrophotometer. cDNA copies were made from purified RNA using an ABI (ABI, CA) high capacity cDNA archive kit.
(§2) Final data were expressed relative to a calibrator sample.

Test [3] shares this test system. The test can be described thus: Formation of pancreatic endocrine cells expressing Nkx2.2 (PCR). The class given is cell-based. As for the experimental part:
Cells were continuously cultured for another 3 to 5 days in basal medium with retinoic acid at 1 μM, alone or with bFGF. RNA samples were harvested from cells at various time points along this process to help evaluate the directed differentiation of the cells. Furthermore, culture medium and factors were regularly removed and replenished throughout the differentiation protocol.

The test system is the same in test [4]. The test is described as follows: Immunocytochemistry of definitive endoderm markers after activin A treatment. Type of test: cell-based. The conditions noted are these: activin A for five days.
Source text: as §1
Levels of expression for HNF-3beta, Sox-17, and GATA4 were low in untreated cells, approximately 10 to 20% of all cells.

Test [5] has the same test system. The test can be described thus: FACS of protein markers after activin A treatment, hES cells on mouse embryonic fibroblasts (Table IIA). Type of test: cell-based. The note with it: for CD9 protein expression / CXCR4 protein expression / ECAM protein expression / NCAM protein expression / SSEA-3 protein expression: H9, FACS.
Source text: as §1
CXCR4 positive cells were also highly positive for C-kit, EPCAM, CD99, and negative for CD9. The expression pattern for these markers was consistent among all three hES cell lines examined (Table IIB for H7 and Table IIC for H1). […] In parallel, almost 100% of the differentiated cells were […] (FIG. 2).
Adhered cells were removed from culture plates by five-minute incubation with TrypLE™ Express solution (Invitrogen, CA). Released cells were resuspended in human embryonic stem cell culture medium and recovered by centrifugation, followed by washing and resuspending the cells in a staining buffer consisting of 2% BSA, 0.05% sodium azide in PBS (Sigma, MO). As appropriate, the cells were Fc-receptor blocked for 15 minutes using a 0.1% γ-globulin (Sigma) solution. […] Controls included appropriate isotype matched antibodies, unstained cells, and cells stained only with secondary conjugated antibody. All incubations with antibodies were performed for 30 mins at 4° C. after which the cells were washed with the staining buffer. Samples that were stained with unconjugated primary antibodies were incubated for an additional 30 mins at 4° C. with secondary conjugated PE or —APC labeled antibodies. See Table I for a list of secondary antibodies used. Washed cells were pelleted and resuspended in the staining buffer, and the cell surface molecules were identified using a FACS Array (BD Biosciences) instrument, collecting at least 10,000 events.

The test system is the same in test [6]. The test can be described thus: Formation of pancreatic endocrine cells with gamma-secretase inhibitor L-685,458 (PCR). The conditions noted are these: activin A alone or in combination with retinoic acid and FGFs. Type of test: cell-based. As for the experimental part: After this time interval, the cells were then treated for six days with combinations of retinoic acid and FGF as outlined in Example 2, then the culture medium was removed and replaced with medium comprising DMEM/F12 with 2% FBS, containing the γ-secretase inhibitors L-685,458 at 10 μM for three days.
as §2

In test [7] the test system is H9P49 and H1P46 embryonic stem cells. The test can be described thus: Definitive endoderm on MATRIGEL: effective dose of activin A with GSK-3B inhibitor or Wnt-3a. Type of test: cell-based, human. An excerpt: FIG. 31 panels a-d is for H9P49 cells and panels e-f is for H1P46 cells.

Turning to Wnt-3a, in test [1], the “number of CXCR4 positive cells” value is “significantly increased”.
With “Activin A: activin A (a member of the TGFβ superfamily), R&D Systems; 'w/o wnt' in Table VII = 100 ng/ml Activin A without Wnt3a”, the Oct4 expression entry in test [2] (Activin A 100 ng/ml up to seven days) was “no significant decrease”. The Pdx1 gene expression result in test [2] (Activin A 100 ng/ml up to seven days, 0% to 2% serum) was “no Pdx1 gene expression was observed”. In test [2] (H9, 100 ng/ml activin A), the “expression of Brachyury” value is given as “decreased” and the “expression of neuronal marker Zic1” value is listed as “no effect”. Further, in test [2] (H9, 100 ng/ml activin A, 1-7 days), the “expression of extraembryonic endoderm markers Sox7 and AFP” value was “time-dependent decrease”. Further, the “anterior endoderm markers Cerberus, Otx-1 and Hex genes” value in test [2] (H9, 100 ng/ml activin A, three and five days) is recorded as “significant up regulation”. The “expression of CXCR4, GATA4, HNF-3beta, Mixl1 and Sox-17 mRNA” value in test [2] (H9, 100 ng/ml activin A, two, five and eight days) is given as “time-dependent increase”. The “increase of Nkx2.2 expression compared to samples without activin A” value in test [3] (50 ng/ml activin A with 50 ng/ml basic FGF and 1 μM Retinoic Acid) is on record as “about 35 fold”. The Pdx1 expression result in test [3] (activin A for the first three days of culture) is recorded as “maintained Pdx1 expression at a level similar to samples containing no activin A”. For the same substance, in test [4], the “cells positive for Sox17 and HNF-3beta (immunocytochemistry)” value was 30-40%; the “differentiated cells still Oct4 positive (immunocytochemistry)” value is given as ~100%. For the same substance, in test [5] (FACS, following activin A treatment), the “expression of E-cadherin and N-cadherin” value was “did not change”. Also, in test [5] (2-DAY activin A 100 ng/ml), the CD9 protein expression was 29.42%, the CXCR4 protein expression was 20.2%, the ECAM protein expression amounted to 20.87% and the NCAM protein expression is listed as 5.04%. For the same substance, in test [5] (2-DAY activin A 100 ng/ml), the SSEA-3 protein expression stood at 92.14%. In test [5] (5-DAY activin A 100 ng/ml), this substance had a CD9 protein expression of 7.27%, a CXCR4 protein expression of 55.26%, an ECAM protein expression of 14.17% and an NCAM protein expression of 21.1%. Moreover, the SSEA-3 protein expression in test [5] (5-DAY activin A 100 ng/ml) is on record as 42.9%. In test [5] (8-DAY activin A 100 ng/ml), this substance registered a CD9 protein expression of 4.1%, a CXCR4 protein expression of 56.92%, an ECAM protein expression of 1.02% and an NCAM protein expression of 8.86%. In test [5] (8-DAY activin A 100 ng/ml), this substance came in with an SSEA-3 protein expression of 22.05%. Also, the “CXCR4 protein by FACS analysis” value in test [5] (following activin A treatment) is listed as “increase”. Further, the “expression of Ngn3 or insulin” value in test [6] is “did not induce”. For the same substance, the “expression of definitive endoderm markers” value in test [7] (50 ng/ml of AA+20 ng/ml of Wnt-3A or 100 nM GSK-3B inhibitor IX) is on record as “robust expression”. Moreover, the “cell fate at lower doses of activin A” value in test [7] (lower doses of activin A) is listed as “formation of extraembryonic endoderm”.

(Values after US9096832B2, “Differentiation of human embryonic stem cells” (LifeScan, Inc., priority 2007, dated 2015).)
